According to PubChem BioAssay (NCI):
Several values for one entry are separate records, joined by “and”; a condition that tells them apart may be missing. Equal values may be shown once.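 Each compound was tested at five concentrations against cells in 96-well plates for 48 hours. GI50: concentration for 50% inhibition of growth. The concentration for full growth arrest is given as TGI.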

Key:
Assay in all cases: DTP human tumour cell line panel, 48 h
CCRF-CEM leukemia = test system: CCRF-CEM leukemia
OVCAR-5 ovarian = test system: OVCAR-5 ovarian
TK-10 renal = test system: TK-10 renal
ACHN renal = test system: ACHN renal
HOP-62 NSCLC = test system: HOP-62 NSCLC
PC-3 prostate = test system: PC-3 prostate
MOLT-4 leukemia = test system: MOLT-4 leukemia
EKVX NSCLC = test system: EKVX NSCLC
NCI-H226 lung = test system: NCI-H226 lung
KM12 colon = test system: KM12 colon

| Structure (SMILES) | GI50 (CCRF-CEM leukemia) | TGI (CCRF-CEM leukemia) | GI50 (OVCAR-5 ovarian) | TGI (OVCAR-5 ovarian) | GI50 (TK-10 renal) | TGI (TK-10 renal) | GI50 (ACHN renal) | TGI (ACHN renal) | GI50 (HOP-62 NSCLC) | TGI (HOP-62 NSCLC) | GI50 (PC-3 prostate) | TGI (PC-3 prostate) | GI50 (MOLT-4 leukemia) | TGI (MOLT-4 leukemia) | GI50 (EKVX NSCLC) [µM] | TGI (EKVX NSCLC) [µM] | GI50 (NCI-H226 lung) | TGI (NCI-H226 lung) | GI50 (KM12 colon) | TGI (KM12 colon) |
| --- | --- | --- | --- | --- | --- | --- | --- | --- | --- | --- | --- | --- | --- | --- | --- | --- | --- | --- | --- | --- |
| N#CC(C#N)N=Nc1ccc(Br)cc1 | 1.53 µM | 10.7 µM | 4.8 µM | > 72.6 µM | 4.04 µM | 43.2 µM | 1.99 µM | 7.89 µM | 27.1 µM | > 100 µM | 2.42 µM | 17.7 µM | 2.72 µM | > 66.2 µM | 6 | > 83 | 4.63 µM | 27 µM | 9.65 µM | > 100 µM |
| O=S(=O)(N/N=C/c1cccc(Cl)c1Cl)c1ccccc1 |  | > 100 µM |  | > 100 µM |  | > 100 µM |  | > 100 µM |  | > 100 µM |  |  |  | 58.1 µM |  | > 100 |  | > 100 µM |  | > 100 µM |
| Nc1ncnc2c1c(-c1cccc(OCc3ccccc3)c1)cn2C1CC(CN2CCC2)C1 (stereo not given) | 2.58 µM and 2.97 µM | 7.99 µM and > 10 µM | 0.844 µM and 2.48 µM | 14.9 µM and > 10 µM | 2.02 µM and 2.85 µM | 7.74 µM and > 10 µM | 3.87 µM and 7.43 µM | 15.3 µM and > 10 µM | 1.88 µM and 3.79 µM | 8.33 µM and > 10 µM | 2.94 µM and 5.42 µM | 13.9 µM and > 10 µM | 2.82 µM and 2.56 µM | 8.59 µM and > 10 µM | 7.88 | > 10 | 2.03 µM and 2.71 µM | 16 µM and > 10 µM | 2.72 µM and 3.07 µM | 8.97 µM and > 10 µM |
| COc1cc2c(cc1OC)C(OC)N(C)c1c-2ccc2cc3c(cc12)OCO3 (stereo not given) |  | 13.4 µM |  | 11.8 µM |  | > 75 µM |  | > 75 µM |  | 7.4 µM |  | > 75 µM |  | 16.1 µM |  | 15 |  | 4.3 µM |  | 4.45 µM |
| O=[N+]([O-])/C=C/c1cc2ccccc2[nH]1 |  | 9.61 µM |  | 37.1 µM |  | 32.2 µM |  | 31.1 µM |  | 32.4 µM |  | 31.7 µM |  | 44.2 µM |  | 78 |  | 37.7 µM |  | 25 µM |
| COc1ccc(C(=O)C(c2ccc(OC)cc2)C2OC(=O)C(Cl)=C2Cl)cc1 (stereo not given) |  | > 100 µM |  | > 100 µM |  | > 100 µM |  | > 100 µM |  | > 100 µM |  |  |  | > 100 µM |  | > 100 |  | > 100 µM |  | > 100 µM |
| O=C(O)CCC/C=C\C[C@H]1C=CC(=O)/C1=C/C[C@@H](O)CCc1cccc(C(F)(F)F)c1 | 0.465 µM | 10.8 µM | 4.15 µM | 11.8 µM | 4.21 µM | 9.82 µM | 1.65 µM | 3.22 µM | 2.93 µM | 7.27 µM | 3.12 µM | 10.3 µM | 2.21 µM | 7.34 µM | 3.73 | 14.3 |  |  | 1.89 µM | 4.62 µM |
| CC(C)C1CC2C(=O)N(c3ccccc3)C(=O)C2c2[nH]c3ccccc3c21 (stereo not given) |  | 54.3 µM |  | > 100 µM |  | 97.4 µM |  | 38.3 µM |  | > 100 µM |  |  |  | > 100 µM |  | > 100 |  | 36.8 µM |  | > 100 µM |
| COc1ccc(-c2nc(C(=O)c3ccccc3)n(CC(=O)c3ccccc3)c2-c2ccc(OC)cc2)cc1 | > 100 µM | > 100 µM | > 100 µM | > 100 µM | > 100 µM | > 100 µM | > 100 µM | > 100 µM | > 100 µM | > 100 µM | > 100 µM | > 100 µM | > 100 µM | > 100 µM | > 100 | > 100 | > 100 µM | > 100 µM | > 100 µM | > 100 µM |
| O=C(Nc1ccccc1O)c1ccc(CNc2ccnc(C(F)(F)F)c2)cc1 | 0.354 µM | 12.8 µM | 16.5 µM | > 100 µM | 11.3 µM | 36 µM | 2.59 µM | > 100 µM | 5.54 µM | 47.6 µM | 2.72 µM | 48.4 µM | 2.38 µM | 28.5 µM | 4.19 | > 100 | 6.56 µM | 33.8 µM | 7.01 µM | 23.3 µM |
| CC(=O)O[C@@H]1[C@@H](O)C2=C3[C@]4(C)[C@@H]1C(C)(C)C(=O)C[C@@H]4[C@]3(O)[C@H](OC(C)=O)[C@@]1(C[C@@H]1C)C2=O |  | 34.1 µM |  | 54.9 µM |  | 29.7 µM |  | 43.4 µM |  |  |  | 48.9 µM |  | 72.4 µM |  | 40.7 |  |  |  | 30.8 µM |
| Cc1cc2cn3c4ccc(O)cc4[nH]c(=O)c3c2cc1C | 0.0418 µM | 1.81 µM | 0.223 µM | 2.02 µM | 0.667 µM | 2.13 µM | 0.0471 µM | 1.64 µM | 0.0415 µM | 1.33 µM | 0.0542 µM | 1.7 µM |  |  | 0.403 | 1.85 | 0.0399 µM | 0.859 µM | 0.0374 µM | 0.553 µM |
| O=C(/C=C/C=C/c1c(C2CC2)nc2ccccc2c1-c1ccc(F)cc1)c1cccs1 | 1.37 µM | > 100 µM |  |  | 4.58 µM | 32.9 µM | 1.34 µM | 3.86 µM | 2.74 µM | 7.25 µM | 3.99 µM | > 100 µM | 1 µM | > 100 µM | 3.09 | > 100 | 1.5 µM | 3.49 µM | 1.79 µM | 8.05 µM |
| O=C(Nc1cccc(Cc2cccc(NC(=O)c3ccccc3)c2)c1)c1ccccc1 |  | > 100 µM |  | > 100 µM |  | > 100 µM |  | > 100 µM |  | 60.9 µM |  |  |  | > 100 µM |  | > 100 |  | > 100 µM |  | > 100 µM |
| CN(/N=C/c1cccc2cccnc12)c1ccc([N+](=O)[O-])cc1 |  | > 100 µM |  | > 100 µM |  | > 100 µM |  | > 100 µM |  | > 100 µM |  |  |  | > 100 µM |  | > 100 |  | > 100 µM |  | > 100 µM |
| COC1=CC(=O)C(OC)=C(OC)C1=O | 2.8 µM | 8.39 µM | 17.3 µM | 33 µM | 15.3 µM | 30 µM | 12.8 µM | 25.3 µM | 16.2 µM | 29.7 µM | 14.9 µM | 32.8 µM | 2.07 µM | 5.5 µM | 15.9 | 29.8 | 18.7 µM | 39.2 µM |  |  |
